Patent US20230081539A1, “SUPRACHOROIDAL DELIVERY OF DRUG PARTICLES TO REDUCE TOXICITY” (The Johns Hopkins University, priority 2020, published 2023)

Legend:
[1] = system: choroidal NV at Bruch's membrane rupture sites; assay: Mouse CNV model, intravitreous injection of free ACF or PRF; assay type: in vivo, C57BL/6 mice; settings: mice, 1 μl intravitreous injection of 50 ng immediately after rupture of Bruch's membrane, read after seven days
Protocol: Seven days after rupture of Bruch's membrane, mice were euthanized, eyecups were fixed and stained with FITC-labeled Griffonia Simplicifolia lectin (GSA, Vector Laboratories, Burlingame, Calif.), and flat mounted. The area of choroidal NV at each Bruch's membrane rupture site was measured by image analysis by an observer masked with respect to treatment group. The area of choroidal NV at the 3 rupture sites in one eye was averaged to give one experimental value for each animal. […] One week after rupture of Bruch's membrane, choroidal flat mounts were stained with FITC-Griffonia simplicifolia lectin.

HIF-2 = HIF-2 (Homo sapiens, UniProt Q99814); settings: in vitro; cited from earlier work
Sequence of HIF-2 (Q99814 whole entry): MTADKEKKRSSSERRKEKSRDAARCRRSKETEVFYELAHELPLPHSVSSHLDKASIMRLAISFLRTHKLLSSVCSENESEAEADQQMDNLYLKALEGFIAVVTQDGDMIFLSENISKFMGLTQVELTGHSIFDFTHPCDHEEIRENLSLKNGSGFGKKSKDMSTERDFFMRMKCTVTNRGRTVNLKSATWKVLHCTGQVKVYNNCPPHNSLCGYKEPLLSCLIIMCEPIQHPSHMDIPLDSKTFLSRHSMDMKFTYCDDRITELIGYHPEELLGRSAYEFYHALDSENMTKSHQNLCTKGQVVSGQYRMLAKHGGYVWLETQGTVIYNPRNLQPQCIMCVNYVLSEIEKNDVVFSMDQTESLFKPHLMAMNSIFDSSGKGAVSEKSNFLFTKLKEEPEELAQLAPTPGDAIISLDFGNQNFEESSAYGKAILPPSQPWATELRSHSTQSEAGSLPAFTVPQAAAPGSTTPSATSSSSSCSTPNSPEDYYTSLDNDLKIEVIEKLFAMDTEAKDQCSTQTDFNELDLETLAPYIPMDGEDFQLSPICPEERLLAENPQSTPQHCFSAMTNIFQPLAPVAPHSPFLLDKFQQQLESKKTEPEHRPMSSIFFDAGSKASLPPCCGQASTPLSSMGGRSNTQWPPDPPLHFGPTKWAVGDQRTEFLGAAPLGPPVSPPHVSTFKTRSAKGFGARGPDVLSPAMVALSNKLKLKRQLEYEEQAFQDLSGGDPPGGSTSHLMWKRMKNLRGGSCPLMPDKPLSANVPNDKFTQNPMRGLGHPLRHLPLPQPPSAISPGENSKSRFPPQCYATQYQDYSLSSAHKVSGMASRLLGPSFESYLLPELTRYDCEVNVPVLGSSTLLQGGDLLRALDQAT

HIF-1 = HIF-1 (Homo sapiens, UniProt Q16665); settings: in vitro; cited from earlier work
Sequence of HIF-1 (Q16665 whole entry): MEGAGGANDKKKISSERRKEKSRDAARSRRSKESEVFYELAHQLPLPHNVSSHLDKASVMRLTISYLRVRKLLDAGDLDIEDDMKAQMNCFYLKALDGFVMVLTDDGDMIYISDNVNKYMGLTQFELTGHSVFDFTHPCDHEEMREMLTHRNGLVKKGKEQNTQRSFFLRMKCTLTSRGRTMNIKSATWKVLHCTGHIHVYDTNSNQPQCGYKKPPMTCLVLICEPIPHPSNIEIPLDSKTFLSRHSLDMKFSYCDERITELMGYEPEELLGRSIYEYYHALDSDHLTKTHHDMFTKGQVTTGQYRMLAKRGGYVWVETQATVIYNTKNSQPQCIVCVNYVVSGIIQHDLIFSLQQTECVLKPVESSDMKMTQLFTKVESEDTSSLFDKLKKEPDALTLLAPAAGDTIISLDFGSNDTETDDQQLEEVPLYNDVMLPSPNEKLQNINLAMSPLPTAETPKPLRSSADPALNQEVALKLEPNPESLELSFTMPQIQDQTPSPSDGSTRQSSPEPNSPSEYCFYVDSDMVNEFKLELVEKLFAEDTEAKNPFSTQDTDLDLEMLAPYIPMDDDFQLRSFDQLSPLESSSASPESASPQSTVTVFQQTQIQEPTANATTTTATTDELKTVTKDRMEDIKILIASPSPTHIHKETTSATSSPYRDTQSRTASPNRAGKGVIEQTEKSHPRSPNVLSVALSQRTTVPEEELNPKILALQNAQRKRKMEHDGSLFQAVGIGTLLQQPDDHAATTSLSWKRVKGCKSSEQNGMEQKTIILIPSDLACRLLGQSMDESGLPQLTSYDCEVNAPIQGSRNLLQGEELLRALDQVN

[2] = Pharmacokinetics in rats: TRF and PRF in ocular tissues by LC-MS/MS after suprachoroidal PLGA-ACF MPs
Protocol: The injection site was marked in each eye. Six rats were euthanized at each of the following time points after injection: 1 and 2 weeks, and 1, 2, 3, and 4 months. After removal of the anterior segment and lens of each eye, the retina and RPE/choroid/sclera were dissected and cut in half along the horizontal meridian through the optic nerve head and frozen separately. Samples were analyzed for acriflavine and proflavine by liquid chromatography with tandem mass spectrometry (LC-MS/MS). Tissue samples were homogenized in 200 μl of methanol and homogenized with Next Advance Bullet Blender. The analytes were extracted from 25 μl of homogenized tissue with 250 μl of acetonitrile containing internal standard (5 ng/ml of acridine orange). Samples were centrifuged and the top layer was transferred to an auto sampler vial for LC/MS/MS analysis.
Mobile phase A was water containing 0.1% formic acid and mobile phase B was acetonitrile containing 0.1% formic acid. The gradient started with mobile phase B held at 50% for 1 minute and increased to 100% over 0.5 minutes; 100% mobile phase B was held for 1.5 minutes and then returned back to 50% mobile phase B and allowed to equilibrate for 1 minute. […] The column effluent was monitored using a Sciex 4500 triple quadrupole mass spectrometer with electrospray ionization operating in positive mode. […]

Compound	area of CNV at Bruch's membrane rupture sites compared with PBS [1]	concentration that inhibits the transcriptional activity of HIF-2 (HIF-2)	concentration that inhibits the transcriptional activity of HIF-1 (HIF-1)	other results
3,6-diamino-10-methylacridinium chloride mixed with 3,6-acridinediamine [ACF]	statistically significant reduction	nanomolar	nanomolar	–
Nc1ccc2cc3ccc(N)cc3nc2c1 [PRF, proflavine]	almost identical to that of eyes treated with PBS	–	–	–
C[n+]1c2cc(N)ccc2cc2ccc(N)cc21.[Cl-] [TRF, trypaflavine]	–	–	–	duration of steady-state levels in the low nM range in RPE/choroid and retina ([2]; suprachoroidal PLGA-ACF MPs): at least 16 weeks; steady-state level in inferior retina ([2]; suprachoroidal PLGA-ACF MPs containing 10 μg ACF, 2 through 16 weeks): ~0.1 nM
C[C@H]1O[C@@H](O[C@H]2[C@@H](O)C[C@H](O[C@H]3[C@@H](O)C[C@H](O[C@H]4CC[C@@]5(C)[C@H](CC[C@@H]6[C@@H]5C[C@@H](O)[C@]5(C)[C@@H](C7=CC(=O)OC7)CC[C@]65O)C4)O[C@@H]3C)O[C@@H]2C)C[C@H](O)[C@@H]1O [digoxin]	–	nanomolar	–	–
C[C@@H]1O[C@@H](O[C@H]2C[C@@H](O)[C@]3(CO)[C@H]4[C@H](O)C[C@]5(C)[C@@H](C6=CC(=O)OC6)CC[C@]5(O)[C@@H]4CC[C@]3(O)C2)[C@H](O)[C@H](O)[C@H]1O [ouabain]	–	nanomolar	–	–
C[C@@H]1O[C@@H](O[C@@H]2C=C3CC[C@@H]4[C@H](CC[C@]5(C)[C@@H](c6ccc(=O)oc6)CC[C@]45O)[C@@]3(C)CC2)[C@H](O)[C@H](O)[C@H]1O [proscillaridin A]	–	nanomolar	nanomolar	–
